Measured values reported in patent publication US20260055108A1, “TRIAZINE COMPOUNDS AND USES THEREOF” (HUTCHMED LIMITED, priority 2022, published 2026).
Where two headings read alike, the source gives them in different places.

Tests used:
[1] = biological target: Recombinant human Menin protein (2-610) / MLL polypeptide binding (Homo sapiens (Human), UniProt O00255); test: Menin and MLL protein binding at a molecular level (fluorescence polarization method); conditions: inhibition of Menin / MLL polypeptide binding
Source text: Example 3: Determination of the Activity of the Compounds of the Present Invention on Menin and MLL Protein Binding at a Molecular Level (Fluorescence Polarization Method)
1. Reagents, Materials and Instruments:
• Recombinant human Menin protein (2-610): ChemPartner, CP2021020801; • MLL polypeptide (6-FAM-Ahx-SG-40): GL Biochem, 865700; • Trizma® hydrochloride buffer solution (Tris): Sigma, T2194-1 L; • NaCl: Invitrogen, AM9760G; • TCEP: Sigma, 646547; • DMSO: Sigma, D4540; • 384-well plate: Corning, 4514; • Envision: PerkinElmer.
2. Preparation of Reaction Solutions
• 1) Buffer solution: 20 mL of Tris and 4 mL of NaCl were added respectively to 376 mL of ddH2O, with pH adjusted to 7.5, and TCEP was added before testing with a dilution ratio of 1:500. • 2) 5× test compounds: the test compound was subjected to gradient dilution with the buffer solution to 5-fold the reaction concentration, so that the final concentrations of the compound were 1.000, 0.333, 0.111, 0.037, 0.012, 0.004, 0.001 and 0.0005 μM, respectively. • 3) 2.5× Menin protein reaction solution: the Menin protein was diluted to 5 nM with the buffer solution. • 4) 2.5×MLL polypeptide reaction solution: the MLL polypeptide was diluted to 5 nM with the buffer solution.
1) Binding Reaction (20 μL System)
4 μL of 5× test compound was added to each reaction well of the 384-well plate, and the corresponding volume of 10% DMSO was added to the control wells. Except the control wells, 8 μL of Menin protein reaction solution was added to each well. The reaction solution was incubated at room temperature for 30 minutes, and then 8 μL of MLL polypeptide reaction solution was added to each well. The final concentrations of DMSO in the test compound wells and control wells were all 2%. The 384-well plate was sealed and incubated at room temperature for 30 minutes in the dark.
Three control groups were set up: • a blank control group only containing a buffer solution; • a negative control group only containing MLL polypeptide reaction solution; and • a positive control group containing Menin protein reaction solution and MLL polypeptide reaction solution.
The vertical polarization S value and the horizontal polarization P value (excitation wavelength was 480 nm, and emission wavelength was 535 nm) were measured with Envision.
Corrected S is the S value of the negative control group—the S value of the blank control group
Corrected P is the P value of the negative control group—the P value of the blank control group
(§1) • calculated by using software XL-Fit™ (version 5.3) supplied by ID Business Solutions (Guildford, UK), which is an additional software to Microsoft Excel.

[2] = tested on: MV-4-11 cells (human acute myelogenous leukemia cell line carrying MLL-AF4 mutation); test: Cell proliferation assay, MV-4-11 (CellTiter-Glo); format: cell-based; conditions: Homo sapiens, MV4-11, 72 h
Procedure: Example 4 Cell Proliferation Assay
MV-4-11 (ATCC, CRL-9591), a human acute myelogenous leukemia cell line carrying MLL-AF4 mutation. Cells were cultured in an IMDM medium containing 10% heat-inactivated fetal bovine serum (HIFBS) and supplemented with 50 μM β-mercaptoethanol.
2. Reagents, Materials and Instruments:
• IMDM culture solution: GIBCO, 12440-053; • HIFBS: GIBCO, 10100-147; • β-mercaptoethanol: Sigma, M3148; • CellTiter-Glo® 2.0 assay kit (CTG): Promega, G9243; • DMSO: Sigma, D4540; • 96-well cell culture plate: Corning, 3903; • Envision: PerkinElmer.
MV-4-11 cells were resuspended in a medium, added to a 96-well plate at a density of 3000 cells/well with a volume of 100 μL/well, and cultured in a cell incubator at 5% CO2 and 37° C. for 4 hours. The test compound subjected to gradient dilution with the medium was added to a cell culture plate, and the final concentrations of the compound were 1.100, 0.367, 0.122, 0.041, 0.014, 0.005, 0.002 and 0.001 μM, respectively. The corresponding volume of DMSO diluent was added to a blank control well, and the final concentrations of DMSO in the experimental group and control group were both 0.1%. The cell plate was placed in a cell incubator at 5% CO2 and 37° C. and cultured for 3 days.
On day 0 and day 3 of the treatment, 50 μL/well CTG reagent was added to the cell plate and shaken at room temperature in the dark for 10 min, and then the chemiluminescence value of each well was measured with Envision.
[formula] • wherein: • luminescence valuetest sample: the chemiluminescence value of a cell well treated with the test compound for 3 days. • luminescence valueday 0: the chemiluminescence value of a cell well at day 0. • luminescence valuecell well: the chemiluminescence value of a cell well not treated with the compound for 3 days.
as §1

[3] = MV-4-11 cells, 3 days treatment, CellTiter-Glo, read-out: GI50

Recombinant human Menin protein (2-610) / MLL polypeptide binding, sequence (O00255 2-610): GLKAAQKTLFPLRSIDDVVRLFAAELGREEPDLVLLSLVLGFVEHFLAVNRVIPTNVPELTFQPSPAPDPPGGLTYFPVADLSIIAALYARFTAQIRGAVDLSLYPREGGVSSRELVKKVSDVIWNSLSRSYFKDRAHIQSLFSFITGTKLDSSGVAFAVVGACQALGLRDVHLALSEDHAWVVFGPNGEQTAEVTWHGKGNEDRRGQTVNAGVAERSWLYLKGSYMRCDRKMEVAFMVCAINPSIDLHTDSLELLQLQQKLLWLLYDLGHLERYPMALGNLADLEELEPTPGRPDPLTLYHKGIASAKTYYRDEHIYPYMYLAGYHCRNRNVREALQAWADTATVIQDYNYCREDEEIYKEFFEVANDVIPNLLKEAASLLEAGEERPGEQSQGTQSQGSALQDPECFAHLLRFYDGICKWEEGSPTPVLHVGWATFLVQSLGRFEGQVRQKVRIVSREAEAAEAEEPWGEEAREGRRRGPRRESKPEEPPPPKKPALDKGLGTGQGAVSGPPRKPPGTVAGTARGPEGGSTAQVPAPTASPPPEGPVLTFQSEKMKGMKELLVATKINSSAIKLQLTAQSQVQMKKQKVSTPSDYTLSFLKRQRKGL

IC50 [1] [nM] | GI50 [2, 3] [nM] | SMILES | GI50 [2] [nM]
1.2 | 3 | CCN(C(=O)c1cc(F)ccc1Oc1nncnc1N1CC2(CCN(Cc3ccc4[nH]c(C#N)cc4c3C)CC2)C1)C(C)C [Compound 66] | –
324 | 193 | CCN(C(=O)c1cc(F)ccc1Oc1nncnc1N1CC2(CCN(Cc3ccc4[nH]ccc4c3)CC2)C1)C(C)C [Compound 62] | –
4.6 | 16 | CCN(C(=O)c1cc(F)ccc1Oc1nncnc1N1CC2(CCN(CC3CCN(C(=O)Nc4ccccc4F)CC3)CC2)C1)C(C)C [Compound 36, 4-((2-(6-(2-(ethyl(isopropyl)carbamoyl)-4-fluorophenoxy)-1,2,4-triazin-5-yl)-2,7-diazaspiro[3.5]nonan-7-yl)methyl)-N-(2-fluorophenyl)piperidine-1-carboxamide] | –
2.3 | 3 | CCN(C(=O)c1cc(F)ccc1Oc1nncnc1N1CC2(CCN(CC3CCN(c4ccnc(OC)c4)CC3)CC2)C1)C(C)C [Compound 114] | –
14.5 | 20 | CCN(C(=O)c1cc(F)ccc1Oc1nncnc1N1CC2(CCN(CC3CCN(C(=O)CC#N)CC3)CC2)C1)C(C)C [Compound 13] | –
0.7 | 3 | CCN(C(=O)c1cc(F)ccc1Oc1nncnc1N1CC2(CCN(CC3CCN(c4cc(OC)c(OC)cn4)CC3)CC2)C1)C(C)C [Compound 110] | –
> 1000 | > 3300 | COc1cc(N2CCC(CN3CCC4(CC3)CN(c3ncnnc3Oc3ccc(F)c5c3cnn5C(C)C)C4)CC2)nnc1OC [Compound 104] | –
574 | 693 | CCN(C(=O)c1cc(F)ccc1Oc1nncnc1N1CC2(CCN(Cc3cnc(OC)c(Cl)c3C)CC2)C1)C(C)C [Compound 60] | –
> 200 | 133 | CCN(C(=O)c1cc(F)ccc1Oc1nncnc1N1CC2(CCN(CC3CCN(c4cccc(=O)n4C)CC3)CC2)C1)C(C)C [Compound 168] | –
6.1 | 23 | CCN(C(=O)c1cc(F)ccc1Oc1nncnc1N1CC(C2(N(C)Cc3ccc4[nH]c(C#N)cc4c3C)CC2)C1)C(C)C [Compound 139, 2-((5-(3-(1-(((2-cyano-4-methyl-1H-indol-5-yl)methyl)(methyl)amino)cyclopropyl)azetidin-1-yl)-1,2,4-triazin-6-yl)oxy)-N-ethyl-5-fluoro-N-isopropylbenzamide] | –
3 | 5 | CCN(C(=O)c1cc(F)ccc1Oc1nncnc1N1CC2(CCN(CC3CCN(c4ccccn4)CC3)CC2)C1)C(C)C [Compound 57, N-ethyl-5-fluoro-N-isopropyl-2-((5-(7-((1-(pyridin-2-yl)piperidin-4-yl)methyl)-2,7-diazaspiro[3.5]nonan-2-yl)-1,2,4-triazin-6-yl)oxy)benzamide] | –
24.3 | 242 | CCN(C(=O)c1cc(F)ccc1Oc1nncnc1N1CC(C2(NCc3ccc4[nH]c(C#N)cc4c3C)CC2)C1)C(C)C [Compound 127] | –
5.3 | 221 | CCN(C(=O)c1cc(F)ccc1Oc1nncnc1N1CC2(CCN(Cc3ccc4c(cc(C#N)n4CC(O)C(N)=O)c3C)CC2)C1)C(C)C (centres unmarked) [Compound 148] | –
212 | 131 | CCN(C(=O)c1cc(F)ccc1Oc1nncnc1N1CC2(CCN(Cc3ccc4c(cc(C(N)=O)n4CCO)c3C)CC2)C1)C(C)C [Compound 158] | –
6.1 | 26 | [2H]C(c1ccc2oc(C#N)cc2c1)N1CCC2(CC1)CN(c1ncnnc1Oc1ccc(F)cc1C(=O)N(CC)C(C)C)C2 (centres unmarked) [Compound 176] | –
28 | 81 | CCN(C(=O)c1cc(F)ccc1Oc1nncnc1N1CC2(CCN(Cc3ccc4[nH]c(=O)ccc4c3)CC2)C1)C(C)C [Compound 72] | –
89.9 | 37 | CCN(C(=O)c1cc(F)ccc1Oc1nncnc1N1CC2(CCN(CC3CCN(c4ccc(Br)c(=O)n4C)CC3)CC2)C1)C(C)C [Compound 42] | –
184 | 170 | N#Cc1ccc(N2CCC(CN3CCC4(CC3)CN(c3ncnnc3Oc3ccc(F)cc3C3=C(F)C(O)CCC3)C4)CC2)nc1 (centres unmarked) [Compound 136, 6-(4-((2-(6-((5,6′-difluoro-5′-hydroxy-2′,3′,4′,5′-tetrahydro-[1,1′-biphenyl]-2-yl)oxy)-1,2,4-triazin-5-yl)-2,7-diazaspiro[3.5]nonan-7-yl)methyl)piperidin-1-yl)nicotinonitrile] | –
418 | 176 | CCN(C(=O)c1cc(F)ccc1Oc1nncnc1N1CC2(CCN(Cc3ccc4oc(C(=O)NC)cc4c3)CC2)C1)C(C)C [Compound 74] | –
2.4 | 31 | CCN(C(=O)c1cc(F)ccc1Oc1nncnc1N1CC2(CCN(CC3CCN(C(=O)C4CCC4)CC3)CC2)C1)C(C)C [Compound 3] | –
1.1 | 2 | CCN(C(=O)c1cc(F)ccc1Oc1nncnc1N1CC2(CCN(CC3CCN(c4ccc(Cl)nn4)CC3)CC2)C1)C(C)C [Compound 46] | –
5.1 | 70 | CCN(C(=O)c1cc(F)ccc1Oc1nncnc1N1CCC(C2(NCc3ccc4[nH]c(C#N)cc4c3C)CC2)C1)C(C)C (centres unmarked) [Compound 128] | –
3.1 | 13 | CC(C)n1nccc1-c1cc(F)ccc1Oc1nncnc1N1CC2(CCN(CC3CCN(c4ccc(C(F)(F)F)nn4)CC3)CC2)C1 [Compound 91] | –
141 | 181 | CCN(C(=O)c1cc(F)ccc1Oc1nncnc1N1CC2(CCN(CC3CCN(C4COC4)CC3)CC2)C1)C(C)C [Compound 137, N-ethyl-5-fluoro-N-isopropyl-2-((5-(7-((1-(oxetan-3-yl)piperidin-4-yl)methyl)-2,7-diazaspiro[3.5]nonan-2-yl)-1,2,4-triazin-6-yl)oxy)benzamide] | –
> 1000 | 2150 | CCN(C(=O)c1cc(F)ccc1Oc1nncnc1N1CC2(CCN(Cc3ccc4nc(OC)ncc4c3)CC2)C1)C(C)C [Compound 70] | –
1.5 | 4 | [2H]C(c1ccc2[nH]c(C#N)cc2c1C)N1CCC2(CC1)CN(c1ncnnc1Oc1ccc(F)cc1C(=O)N(CC)C(C)C)C2 (centres unmarked) [Compound 175, 2-((5-(7-((2-cyano-4-methyl-1H-indol-5-yl)methyl-d)-2,7-diazaspiro[3.5]nonan-2-yl)-1,2,4-triazin-6-yl)oxy)-N-ethyl-5-fluoro-N-isopropylbenzamide] | –
30 | 59 | CCN(C(=O)c1cc(F)ccc1Oc1nncnc1N1CC2(CCN(CC3CCN(c4nnc(OC)cc4OC)CC3)CC2)C1)C(C)C [Compound 96] | –

SMILES | IC50 [1] [nM] | GI50 [2, 3] [nM] | GI50 [2] [nM]
C=CC(=O)N1CC(C(=O)N2CCC(CN3CCC4(CC3)CN(c3ncnnc3Oc3ccc(F)cc3C(=O)N(CC)C(C)C)C4)CC2)C1 [Compound 18, 2-((5-(7-((1-(1-acryloylazetidine-3-carbonyl)piperidin-4-yl)methyl)-2,7-diazaspiro[3.5]nonan-2-yl)-1,2,4-triazin-6-yl)oxy)-N-ethyl-5-fluoro-N-isopropylbenzamide] | 14.6 | – | 12
